# Laboratory results as given in patent US10364222B2, “Cyclic amine derivative and medical use thereof” (Toray Industries, Inc., priority 2016, dated 2019).
# Test system: IL-17 production in mouse splenocytes
# Test: Suppressive effect on IL-17 production by IL-23 stimulation in mouse splenocytes
# Format: cell-based
# Conditions: Splenocyte, 72 h, at 5 μmol/L of the test compound, 10 ng/mL human IL-23, 3 days, read-out: IL-17 production inhibition rate (%)
# Protocol: Using mouse splenocytes, the suppressive effect of the cyclic amine derivative (I) or a pharmacologically acceptable salt thereof on IL-17 production by IL-23 stimulation was evaluated by a partially modified method mentioned in The Journal of Biological Chemistry, 2003, Vol. 278, No. 3, p. 1910-1914.
# A single cell suspension was prepared from the spleen of C57BL/6J mice (male, 7 to 23 weeks old) (Charles River Laboratories Japan, Inc.) and splenocytes were prepared using Histopaque-1083 (Sigma-Aldrich Japan). The culture medium was used by adding 10% FBS (Gibco), 50 U/mL of penicillin 50 μg/mL of streptomycin (Gibco), 50 μmol/L of 2-mercaptoethanol (Gibco), and 100 U/mL of human IL-2 (Cell Science & Technology Institute, Inc.) to RPMI1640 medium (Gibco). The test compound was dissolved in DMSO and then diluted with the culture medium to have a final concentration of DMSO of 0.1% before use. Splenocytes (3×10^5 cells/well) prepared in the culture medium were seeded in wells of a 96-well flat-bottom plate (Corning Incorporated), the test compound and 10 ng/mL of human IL-23 (R & D systems, Inc.) were added thereto, and the cells were cultured at 37° C. under 5% CO2 for 3 days. A well without addition of human IL-23 and without addition of the test compound and a well with addition of human IL-23 and without addition of the test compound were prepared. After completion of the culture, the culture supernatant was collected and the IL-17 production amount in the supernatant was determined by ELISA method (R & D systems, Inc.).
# The IL-17 production inhibition rate (%) was calculated from Formula 2. IL-17 production inhibition rate(%)=(1−((IL-17 production amount with addition of IL-23 and with addition of the test compound)−(IL-17 production amount without addition of IL-23 and without addition of the test compound))/((IL-17 production amount with addition of IL-23 and without addition of the test compound)−(IL-17 production amount without addition of IL-23 and without addition of the test compound)))×100 Formula 2
row,Structure (SMILES),inhibition at 5 µM [%]
1,"CC(=O)NCC(=O)N1CCCCC1C(=O)Nc1ccc(-c2ccccc2OC(F)(F)F)c(Cl)c1 (stereo not shown) [Example 9, 1-(2-acetamideacetyl)-N-(2-chloro-2′-(trifluoromethoxy)-[1,1′-biphenyl]-4-yl)piperidine-2-carboxamide]",94.6
2,"CNCCC(=O)N1CCCCC1C(=O)Nc1ccc(-c2ccccc2OC(F)(F)F)c(Cl)c1 (stereo not shown) [Example 34, N-(2-chloro-2′-(trifluoromethoxy)-[1,1′-biphenyl]-4-yl)-1-(3-(methylamino)propanoyl)piperidine-2-carboxamide]",100
3,"CS(=O)(=O)N1CC[C@H](O)C[C@@H]1C(=O)Nc1ccc(-c2ccccc2OC(F)(F)F)c(Cl)c1 [Example 26, (2R,4S)—N-(2-chloro-2′-(trifluoromethoxy)-[1,1′-biphenyl]-4-yl)-4-hydroxy-1-(methylsulfonyl)piperidine-2-carboxamide]",96.4
4,"CN(C)CC(=O)N1CCCCC1C(=O)Nc1ccc(-c2ccccc2OC(F)(F)F)c(Cl)c1 (stereo not shown) [Example 6, N-(2-chloro-2′-(trifluoromethoxy)-[1,1′-biphenyl]-4-yl)-1-(2-(dimethylamino)acetyl)piperidine-2-carboxamide]",91.6
5,"NCCC(=O)N1CCCCC1C(=O)Nc1ccc(-c2ccccc2OC(F)(F)F)c(Cl)c1 (stereo not shown) [Example 30, 1-(3-aminopropanoyl)-N-(2-chloro-2′-(trifluoromethoxy)-[1,1′-biphenyl]-4-yl)piperidine-2-carboxamide]",99.8
6,"CC(=O)N(C)CC(=O)N1CCCCC1C(=O)Nc1ccc(-c2ccccc2OC(F)(F)F)c(Cl)c1 (stereo not shown) [Example 12, N-(2-chloro-2′-(trifluoromethoxy)-[1,1′-biphenyl]-4-yl)-1-(2-(N-methylacetamide)acetyl)piperidine-2-carboxamide]",96.1
7,"CC(=O)NCCC(=O)N1CCCCC1C(=O)Nc1ccc(-c2ccccc2OC(F)(F)F)c(Cl)c1 (stereo not shown) [Example 31, 1-(3-acetamidepropanoyl)-N-(2-chloro-2′-(trifluoromethoxy)-[1,1′-biphenyl]-4-yl)piperidine-2-carboxamide]",99.1
8,"O=C(Nc1ccc(-c2ccccc2OC(F)(F)F)c(Cl)c1)C1CCCCN1C(=O)C(F)F (stereo not shown) [Example 7, N-(2-chloro-2′-(trifluoromethoxy)-[1,1′-biphenyl]-4-yl)-1-(2,2-difluoroacetyl)piperidine-2-carboxamide]",99
9,"O=C(Nc1ccc(-c2ccccc2OC(F)(F)F)c(Cl)c1)[C@H]1CCCCN1C(=O)Cn1cncn1 [Example 63, (R)-1-(2-(1H-1,2,4-triazol-1-yl)acetyl)-N-(2-chloro-2′-(trifluoromethoxy)-[1,1′-biphenyl]-4-yl)piperidine-2-carboxamide]",99.9
10,"CC(=O)N(C)CCC(=O)N1CCCCC1C(=O)Nc1ccc(-c2ccccc2OC(F)(F)F)c(Cl)c1 (stereo not shown) [Example 35, N-(2-chloro-2′-(trifluoromethoxy)-[1,1′-biphenyl]-4-yl)-1-(3-(N-methylacetamide)propanoyl)piperidine-2-carboxamide]",94.9
11,"O=C(O)CCCC(=O)N1CCCC[C@@H]1C(=O)Nc1ccc(-c2ccccc2OC(F)(F)F)c(Cl)c1 [Example 70, (R)-5-(2-((2-chloro-2′-(trifluoromethoxy)-[1,1′-biphenyl]-4-yl)carbamoyl)piperidin-1-yl)-5-oxopentanoic acid]",99.7
12,"CNCC(=O)N1CCCCC1C(=O)Nc1ccc(-c2ccccc2OC(F)(F)F)c(Cl)c1 (stereo not shown) [Example 11, N-(2-chloro-2′-(trifluoromethoxy)-[1,1′-biphenyl]-4-yl)-1-(2-(methylamino)acetyl)piperidine-2-carboxamide]",94.1
13,"CN(C)CCC(=O)N1CCCC[C@@H]1C(=O)Nc1ccc(-c2ccccc2OC(F)(F)F)c(Cl)c1 [Example 68, (R)-N-(2-chloro-2′-(trifluoromethoxy)-[1,1′-biphenyl]-4-yl)-1-(3-(dimethylamino)propanoyl)piperidine-2-carboxamide]",99.4
14,"CN(C)CCC(=O)N1CCCCC1C(=O)Nc1ccc(-c2ccccc2OC(F)(F)F)c(Cl)c1 (stereo not shown) [Example 33, N-(2-chloro-2′-(trifluoromethoxy)-[1,1′-biphenyl]-4-yl)-1-(3-(dimethylamino)propanoyl)piperidine-2-carboxamide]",98.3
15,"CC(=O)N1CC[C@@H](O)C[C@@H]1C(=O)Nc1ccc(-c2ccccc2OC(F)(F)F)c(Cl)c1 [Example 27, (2R,4R)-1-acetyl-N-(2-chloro-2′-(trifluoromethoxy)-[1,1′-biphenyl]-4-yl)-4-hydroxypiperidine-2-carboxamide]",97.4
16,"O=C(Nc1ccc(-c2ccccc2OC(F)(F)F)c(Cl)c1)[C@H]1CCCCN1C(=O)Cn1cnnc1 [Example 62, (R)-1-(2-(4H-1,2,4-triazol-4-yl)acetyl)-N-(2-chloro-2′-(trifluoromethoxy)-[1,1′-biphenyl]-4-yl)piperidine-2-carboxamide]",100
17,"CC(=O)N1CC[C@H](O)C[C@@H]1C(=O)Nc1ccc(-c2ccccc2OC(F)(F)F)c(Cl)c1 [Example 24, (2R,4S)-1-acetyl-N-(2-chloro-2′-(trifluoromethoxy)-[1,1′-biphenyl]-4-yl)-4-hydroxypiperidine-2-carboxamide]",95.7
18,"CNCCC(=O)N1CCCC[C@@H]1C(=O)Nc1ccc(-c2ccccc2OC(F)(F)F)c(Cl)c1 [Example 41, (R)-N-(2-chloro-2′-(trifluoromethoxy)-[1,1′-biphenyl]-4-yl)-1-(3-(methylamino)propanoyl)piperidine-2-carboxamide]",99.1
19,"NCCC(=O)N1CCCC[C@@H]1C(=O)Nc1ccc(-c2ccccc2OC(F)(F)F)c(Cl)c1 [Example 38, (R)-1-(3-aminopropanoyl)-N-(2-chloro-2′-(trifluoromethoxy)-[1,1′-biphenyl]-4-yl)piperidine-2-carboxamide]",99
